In publication PMC3269522 (2011):
pIC50: −log10 of the molar value.

Biological target: CyaB (Pseudomonas aeruginosa, UniProt Q9HZ23)
Test: adenylyl cyclase activity assay with purified enzyme
Type: biochemical

In the case of KH7.148, the pIC50 was ~5.00.
